In US10654834B2 (Venenum Biodesign, LLC, priority 2016, dated 2020):

Legend:
human TGR5 receptor = biological target: T1, human TGR5 receptor (Homo sapiens, UniProt Q8TDU6); test: Human TGR5 cAMP production assay (hTGR5-CHO cells, DiscoveRx cAMP XS+ kit); assay type: cell-based; settings: luminescent cAMP assay, read-out: Human TGR5 Lum. cAMP Activity (EC50)
T1 construct: host or cells: CHO-K1 (hTGR5-CHO)
T1 sequence (Q8TDU6 1-330): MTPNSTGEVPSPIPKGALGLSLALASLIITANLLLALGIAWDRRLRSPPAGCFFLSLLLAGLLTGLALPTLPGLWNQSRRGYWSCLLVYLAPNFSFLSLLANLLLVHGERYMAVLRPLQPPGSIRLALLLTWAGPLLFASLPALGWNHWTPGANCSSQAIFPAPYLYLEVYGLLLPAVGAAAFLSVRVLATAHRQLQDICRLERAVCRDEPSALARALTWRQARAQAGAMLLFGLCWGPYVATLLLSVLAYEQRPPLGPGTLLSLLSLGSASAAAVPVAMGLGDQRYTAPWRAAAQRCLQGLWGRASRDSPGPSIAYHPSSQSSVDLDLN
Method in brief: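 EC50 values come from luminescent enzyme-complementation cAMP detection, read after overnight incubation. Beforehand, hTGR5-expressing CHO-K1 cells with IBMX and anti-cAMP antibody were exposed 1 h at room temperature to serially diluted (half-log) compounds.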

mouse TGR5 receptor = biological target: T2, mouse TGR5 receptor (Mus musculus, UniProt Q80SS6); test: Mouse TGR5 luminescent cAMP production assay (HEK293-EBNA cells, DiscoveRx cAMP XS+ kit); assay type: cell-based; settings: HEK293-EBNA cells overexpressing mouse TGR5, luminescent cAMP assay; read-out: Mouse TGR5 Lum. cAMP Activity (EC50)
T2 construct: host or cells: HEK293-EBNA (293 c18, ATCC CRL10852)
T2 sequence (Q80SS6 1-329): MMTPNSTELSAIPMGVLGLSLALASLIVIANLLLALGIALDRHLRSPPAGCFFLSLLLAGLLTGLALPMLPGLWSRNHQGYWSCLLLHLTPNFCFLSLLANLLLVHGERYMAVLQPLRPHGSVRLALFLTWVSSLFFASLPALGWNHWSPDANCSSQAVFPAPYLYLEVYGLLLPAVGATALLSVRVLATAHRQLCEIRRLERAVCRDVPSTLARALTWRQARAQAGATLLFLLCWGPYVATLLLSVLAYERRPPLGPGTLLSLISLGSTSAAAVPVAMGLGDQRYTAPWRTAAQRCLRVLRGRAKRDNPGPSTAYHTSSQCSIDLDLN
Method in brief: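 HEK293-EBNA cells stably expressing mouse TGR5, resuspended in serum-free DMEM with 500 μM IBMX, were premixed 20 min with cAMP antibody, then exposed to half-log compound dilutions for 1 h at room temperature. cAMP was read by luminescent enzyme-fragment complementation (cAMP XS+) after overnight incubation; EC50 derived.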

Mouse STC-1 cells = test: STC-1 GLP-1 assay (GLP-1 secretion); assay type: cell-based; settings: Mouse STC-1 cells, GLP-1 secretion, 2 h; read-out: Mouse STC-1 HTRF GLP-1 Activity (EC50)
Method: Compounds of the present invention were evaluated for their ability to induce GLP-1 production in mouse intestinal neuroendocrine tumor cells.
Mouse STC-1 cells were cultured and maintained in high glucose DMEM (Sigma #5796) supplemented with 15% horse serum, 5% Fetal Bovine Serum (FBS), 1%° penicillin/streptomycin, and 2 mM L-alanine L-glutamine (GlutaMax). Two days prior to analysis of GLP-1 secretion cells were harvested using Accutase (Sigma), spun down then resuspended in high glucose DMEM media containing 2 mM L-alanine L-glutamine (GlutaMax), 10% charcoal-dextran stripped FBS, and 50 μg/mL Gentamicin, at a density of 100,000° cells/mL. 100 μL of cell suspension was added to each well of a 96-well Poly-D-Lysine coated culture plate (Sigma; cat #2382493) and was incubated at 37° C. with 5% CO2.
Compounds were initially diluted in 100% DMSO (12-point serial dilution by half logs) in a 96-well plate and then were further diluted 1:500 in Hanks' Balanced Salt Solution (HBSS) containing protease inhibitor cocktail, DPP-IV inhibitor, and 0.1% fatty acid free bovine serum albumin. On the day of the experiment cells were washed once with HBSS. After wash, 100 μL of test compound was added to each well. The plate was incubated at 37° C. with 5% CO2 for 2° h. Supernatants were collected and GLP-1 secretion was measured using the Cisbio™ Active GLP-1 HTRF Assay Kit (CisBio). Briefly, Anti-GLP-1-d2 conjugate and Anti-GLP-1 Terbium Cryptate conjugate stock solutions were prepared as per kit instructions. The two solutions were pre-mixed and 10 μL were transferred to a 384-well low volume plate (Greiner; cat #784075). 10 μL of collected supernatants were added to wells already containing the conjugate solution. The plate was covered and incubated at room temperature overnight. The plate was read on an Envision™ plate reader (PerkinElmer).
In Table 53, EC50 values were obtained from the STC-1 GLP-1 production assay for compounds of the present invention are summarized.

[1] = Pharmacokinetic profile in mice after oral gavage; assay type: in vivo, mouse; settings: mouse; fasted male Hilltop mice, 10 mg/kg oral gavage, plasma; read-out: Cmax
Method: Pharmacokinetic Profile in Mice
In this series of studies, the pharmacokinetic profile characteristics of compounds of the present invention were evaluated. The plasma concentration levels of the compounds were monitored in the blood stream (i.e., plasma) after oral gavage using Cmax, and area under the curve (AUC).
8 week old male Hilltop mice were fasted overnight. Animals were randomized into groups (n=9) by body weight. Mice were dosed with 10 mg/kg compound (in 20% PEG400/80% 0.5% carboxymethylcellulose (medium viscosity)+0.25% Tween-80) at a volume of […] through oral gavage. Blood was collected via orbital bleeding at 0, 0.25, 0.5, 1, 2, and 4 h post-dose, with no one mouse having more than 3 blood draws. Blood was collected in EDTA coated tubes. Samples were stored at −20° C. until analysis.
Quantitation of compound levels in plasma was accomplished by LC-MS/MS analysis. Standard curve and quality control samples were prepared in male CD-1 mouse plasma containing EDTA K^2+ as an anticoagulant at final concentrations ranging from 500 to 0.1 ng/mL. The plasma samples, calibration curve standards, and quality control samples were prepared in an identical method in a 96-well deep plate (1 mL) with a quenching solution (1:1 mixed acetonitrile:methanol containing the internal standard Reserpine @ 400 ng/mL). Low volume samples were supplemented with CD-1 mouse plasma. The plate was mixed on multi-tube vortexer for 1 min and centrifuged at 4000 rpm for 30 min at 4° C. (Sorvall® Super T21) before LC-MS/MS analysis. LC conditions were developed and optimized based on each compound as needed. The outlet of the column was coupled to AB Sciex 4000 QTrap Mass Spectrometer (AB Sciex, Brugg Switzerland). Detection was carried out using multiple reaction monitoring mode with positive-ion detection focusing. The pharmacokinetic parameters were derived from the plasma-time data and calculated using the standard non-compartmental method with WinNonlin (Pharsight, Mountain View, Calif.) or PK Solver (Comp. Meth. Prog. Biomed. (2010), 99, 306-314).
Values reported are the mean plasma concentration of three mice. […]

| Compound | EC50 (human TGR5 receptor) | EC50 (mouse TGR5 receptor) | EC50 (Mouse STC-1 cells) | Cmax [1] |
| --- | --- | --- | --- | --- |
| N#Cc1ccc(CCNC(=O)[C@@H]2CCCN2c2cc(-c3ccc(CO)cc3)nc(C(F)(F)F)n2)cc1 [Compound 146, (S)-N-(4-cyanophenethyl)-1-(6-(4-(hydroxymethyl)phenyl)-2-(trifluoromethyl)pyrimidin-4-yl)pyrrolidine-2-carboxamide] | < 0.1 µM | < 0.1 µM | 1 to 30 µM |  |
| CN(C)CC1CCN(c2cc(N3CCC[C@H]3C(=O)NCCc3ccc(C#N)cc3)nc(C(F)(F)F)n2)CC1 [Compound 19] | 0.1 to 0.999 µM | < 0.1 µM | 1 to 30 µM |  |
| O=C(NCCc1ccc(C(F)(F)F)cc1)[C@@H]1CCCN1c1cc(N2CCC(CO)CC2)nc(C(F)(F)F)n1 [Compound 2, (S)-1-(6-(4-(hydroxymethyl)piperidin-1-yl)-2-(trifluoromethyl)pyrimidin-4-yl)-N-(4-(trifluoromethyl)-phenethyl)pyrrolidine-2-carboxamide] | < 0.1 µM | < 0.1 µM | 0.1 to 0.999 µM |  |
| O=C(NCCc1ccc(C(F)(F)F)cc1)[C@@H]1CCCN1c1cc(OC2CCOCC2)nc(C(F)(F)F)n1 [Compound 40, (S)-1-(6-((tetrahydro-2H-pyran-4-yl)oxy)-2-(trifluoromethyl)pyrimidin-4-yl)-N-(4-(trifluoromethyl)phenethyl)pyrrolidine-2-carboxamide] | < 0.1 µM | < 0.1 µM | 0.1 to 0.999 µM |  |
| N#Cc1ccc(CCNC(=O)[C@@H]2CCCN2c2cc(OC3CCOCC3)nc(C(F)(F)F)n2)cc1 [Compound 41, (S)-N-(4-cyanophenethyl)-1-(6-((tetrahydro-2H-pyran-4-yl)oxy)-2-(trifluoromethyl)pyrimidin-4-yl)pyrrolidine-2-carboxamide] | < 0.1 µM | < 0.1 µM | 0.1 to 0.999 µM |  |
| O=C(NCCc1ccc(C(F)(F)F)cc1)[C@@H]1CCCN(c2cc(N3CCC(CO)CC3)nc(C(F)(F)F)n2)C1 [Compound 329, (R)-1-(6-(4-(hydroxymethyl)piperidin-1-yl)-2-(trifluoromethyl)pyrimidin-4-yl)-N-(4-(trifluoromethyl)-phenethyl)piperidine-3-carboxamide] | < 0.1 µM | < 0.1 µM | 0.1 to 0.999 µM |  |
| N#Cc1ccc(CCNC(=O)[C@@H]2C[C@@H](O)CN2c2cc(N3CCC(CCO)CC3)nc(C(F)(F)F)n2)cc1 [Compound 210, (2S,4R)—N-(4-cyanophenethyl)-4-hydroxy-1-(6-(4-(2-hydroxyethyl)piperidin-1-yl)-2-(trifluoromethyl)pyrimidin-4-yl)pyrrolidine-2-carboxamide] | 0.1 to 0.999 µM | 0.1 to 0.999 µM |  | 54 ng/mL |

Other lines, results leading:

| EC50 (human TGR5 receptor) | EC50 (mouse TGR5 receptor) | EC50 (Mouse STC-1 cells) | Cmax [1] | Compound |
| --- | --- | --- | --- | --- |
| < 0.1 µM | < 0.1 µM | < 0.1 µM |  | O=C(NCCc1ccc(C(F)(F)F)cc1)[C@@H]1CCN1c1cc(N2CCC(CO)CC2)nc(C(F)(F)F)n1 [Compound 220, (S)-1-(6-(4-(hydroxymethyl)piperidin-1-yl)-2-(trifluoromethyl)pyrimidin-4-yl)-N-(4-(trifluoromethyl)-phenethyl)azetidine-2-carboxamide] |
| < 0.1 µM | 0.1 to 0.999 µM | 1 to 30 µM |  | N#Cc1ccc(CCNC(=O)[C@@H]2CCCN2c2cc(N3CCC(CN)CC3)nc(C(F)(F)F)n2)cc1 [Compound 47, (S)-1-(6-(4-(aminomethyl)piperidin-1-yl)-2-(trifluoromethyl)pyrimidin-4-yl)-N-(4-cyanophenethyl)pyrrolidine-2-carboxamide] |
| 0.1 to 0.999 µM | < 0.1 µM | 0.1 to 0.999 µM |  | CS(=O)(=O)c1ccc(-c2cc(N3CCC[C@H]3C(=O)NCCc3ccc(C#N)cc3)nc(C(F)(F)F)n2)cc1 [Compound 152, (S)-N-(4-cyanophenethyl)-1-(6-(4-(methylsulfonyl)phenyl)-2-(trifluoromethyl)pyrimidin-4-yl)pyrrolidine-2-carboxamide] |
| < 0.1 µM | < 0.1 µM | 0.1 to 0.999 µM |  | N#Cc1ccc(CCNC(=O)[C@@H]2CCCN(c3cc(N4CCC(CCO)CC4)nc(C(F)(F)F)n3)C2)cc1 [Compound 309, (R)-N-(4-cyanophenethyl)-1-(6-(4-(2-hydroxyethyl)piperidin-1-yl)-2-(trifluoromethyl)pyrimidin-4-yl)piperidine-3-carboxamide] |
